Measurements reported in patent US9987376B2, “Delivery system for delivery of a substance into the oral cavity” (NORINVENT AB, priority 2008, dated 2018).
Like-named read-outs stand apart in the source and are kept apart here.

Legend:
[1] = tested on: headache caused by the red wine; test: relief of red wine headache in voluntary humans; assay type: in vivo, human; conditions: Group A: 40 mg (1/10 of normal oral dose) bonded to a carrier according to the invention
Method: A further test was performed on voluntary humans. The test was performed on a group of 19 persons. Each test person was given 2 L of red wine without gender discrimination. The wine was consumed during 3 hours the evening before testing. The following morning the individuals were divided into two groups A and B, respectively. Group A received 40 mg ( 1/10 of a normal orally administered dose) of ibumetine bonded to a carrier according to the invention. Group B where given an empty membrane with only sugar chains and no active substance. Group A felt a total relief of the headache caused by the red wine within 5 minutes, whereas group B felt no relief at all from the bare membrane with sugar chains. Group B where therefore treated with 400 mg ibumetine by conventional oral delivery. Various degrees of relief were noted after 45 min-1 h. The test procedure is diagrammatically illustrated in FIG. 3.

[2] = rat, in vivo
Method: White/white laboratory standard rats were used for the tests. In test group A, the rats were given scopolamine.
The rats were terminated by carbon-dioxide 4 h after centrifugation and the intestinal organs were examined. The presence of scopolamine or citalopram in the rat bodies was detected by spectrophotometrics and digital imaging as described in Goncalves, Diaz and Moses et al.

[3] = tested on: motion sickness in White/white laboratory standard rats; test: rat centrifuge motion sickness test; assay type: in vivo
Method: In test group A, the rats were given scopolamine.
Group B served as a control and was treated with uncoupled scopolamine and a starch matrix carrier without sugar chains.
The membrane size was 1×1 mm made out of starch. To this the labelled sugar chains were coupled and one membrane was put under the upper lip of each rat.
Three equally calibrated centrifuges were used in the test, one for each group of rats A, B, C. Each centrifuge was placed in a box having an entrance/exit through which the rats could move freely between their cage and the centrifuge box. The rats were first allowed to find their way into the centrifuge box before they were lifted up and placed in the centrifuge.
The rats were subsequently spun in the centrifuges at 3 G during 30 seconds.
After centrifugation, the ability of each group A, B, C to localize the exit in the centrifuge box and to return to the cage as well as general steadiness were observed.

[4] = White/white laboratory standard, 4 h

CC(C)Cc1ccc(C(C)C(=O)O)cc1 (stereo not shown) [ibumetine]
time to total relief of the headache [1]: ≤ 5 min

CN(C)CCCC1(c2ccc(F)cc2)OCc2cc(C#N)ccc21 (stereo not shown) [citalopram]
active substance in kidney or liver [2, 4]: over 75% | active substance in the brain [2, 4]: less than 4% | active substance in the brain ([2]; 4 h): 99% | active substance in the kidneys ([2]; 4 h): less than 0.1% | active substance in the liver ([2]; 4 h): less than 0.2%

CN1[C@@H]2C[C@@H](OC(=O)[C@H](CO)c3ccccc3)C[C@H]1[C@@H]1O[C@@H]12 [scopolamine]
active substance in kidney or liver ([2]; White/white laboratory standard): over 75% | active substance in the kidneys [2]: less than 0.1% | active substance in the liver [2]: less than 0.2% | behaviour / signs of motion sickness after centrifugation ([3]; Group A: 1/10 of a normal dose bound by sugar chains to starch matrix, under upper lip, 3 G, 30 seconds): no change in normal behaviour | ability to localize the exit in the centrifuge box ([3]; Group A: 1/10 of a normal dose bound by sugar chains to starch matrix, 3 G, 30 seconds): managed to directly locate the exit | behaviour / signs of motion sickness after centrifugation ([3]; Group B: same amount of uncoupled substance with starch matrix without sugar chains, 3 G, 30 seconds): clear signs of motion sickness | ability to localize the exit in the centrifuge box ([3]; Group B: uncoupled substance, starch matrix without sugar chains, test period of 1 h): could not find the exit
